Assay results published in PMC7751407, “Novel oxindole/benzofuran hybrids as potential dual CDK2/GSK-3β inhibitors targeting breast cancer: design, synthesis, biological evaluation, and in silico studies” (Journal of Enzyme Inhibition and Medicinal Chemistry, 2020).

Experiments:
[1] = target: T1, GSK-3β (Homo sapiens, UniProt P49841); test: GSK-3β kinase inhibition (GSK3β Assay Kit, BPS Biosciences); format: biochemical; conditions: mean ± SD of three separate experiments
T1 construct: purchased BPS Biosciences, San Diego, CA, USA 79700
Experimental: (§1) 2. CDK2/GSK-3β Kinase Inhibitory Activities
(§2) The CDK2 and GSK-3β inhibitory activities were determined for hybrids 5a-g using the CDK2
(§3) Kinase Enzyme System (catalog No. V2971) (Promega, Milan, Italy), and GSK3β Assay Kit

[2] = test system: MCF-7 cells; test: Annexin V-FITC/PI dual staining apoptosis assay in MCF-7 cells; format: cell-based, human; conditions: at IC50 concentration; for Late Apoptosis (Upper Right %): control 0.19; for Early Apoptosis (Lower Right %): control 0.63; for Total apoptosis (L.R % + U.R %): control 0.82; for Necrosis: upper left quadrant, control 0.49
Experimental: To investigate further the effect of the promising compounds 5d, 5e, and 5f on cell apoptosis, Annexin V-FITC/propidium iodide dual staining assay was performed according to the reported method. The morphological markers of apoptosis in the breast cancer MCF-7 cell line were examined before and after treatment with the compounds of interest. Apoptosis assay depends on the translocation of the phosphatidylserine (PS) phospholipid to the cell surface in cells undergoing apoptosis which can be easily detected by staining with the fluorescent conjugate of annexin V followed by flow cytometry analysis. Simultaneously, MCF-7 cells were stained with propidium iodide (PI) which could enter cells with damaged plasma membranes only. This enables the discrimination between early apoptotic cells (positive for PS, but negative for PI) from late apoptotic and necrotic cells (positive for both PS and PI). […]
4. Annexin V-FITC Apoptosis Assay
Phosphatidylserine externalization was assayed using Annexin V-FITC/PI apoptosis detection kit (BD Biosciences, USA) according to the manufacturer’s instructions. Breast cancer MCF-7 cells were cultured to a monolayer then treated with hybrids (5d, 5e and 5f) at their IC50 concentration. Briefly, cells were then harvested via trypsinization, and rinsed twice in PBS followed by binding buffer. Moreover, cells were re-suspended in 100 μL of binding buffer with the addition of 1 μL of FITC-Annexin V followed by an incubation period of 30 min at 4 °C. Cells were then rinsed in binding buffer and resuspended in 150 μL of binding buffer with the addition of 1 μL of DAPI (1 μg/μL in PBS). Cells were then analyzed using the flow cytometer BD FACS Canto II and the results were interpreted with FlowJo7.6.4 software (Tree Star, Ashland, OR,

[3] = test system: T-47D; test: MTT anti-proliferative assay, T-47D breast cancer cells; format: cell-based; conditions: Homo sapiens, T47D, 48 h exposure, mean ± SD of three separate experiments
Experimental: (§4) 1. Anti-proliferative activity toward human breast cell lines
(§5) The two examined human breast cancer cell lines (T-47D and MCF-7) have been obtained from American Type Culture Collection (ATCC). Cells lines were maintained as monolayers in Dulbecco’s Modified Eagle’s Medium (DMEM) supplemented with 10% FBS, 2 mM L-glutamine, 100 U/ml penicillin and 100µg/ml streptomycin sulfate. Cells were sub-cultured with trypsine /EDTA solution, counted with haemocytometer and plated onto 96-well plates (5000 cells/well) and left overnight to form a semi-confluent monolayer. Cell monolayers were treated in quadrates with vehicle (DMSO, 0.1% v/v), test samples or Adriamycin as positive control for an exposure time of 48 h. At the end of exposure, MTT solution in PBS (5 mg/ml) was then added to all well including no cell blank and left to incubate for 90 min. The formation of formazan crystals were visually confirmed using phase contract microscopy. DMSO (100 µl/well) was added to dissolve the formazan crystals with shaking for 10 min after which the absorbance was read at 590 nm against no cell blanks on a FLuo Star Optima microplate reader (BMG technologies, Germany).
(§6) Cell proliferation was calculated comparing the OD values of the DMSO control wells and those of the samples represented as % proliferation to the control. Dose-response experiment was performed on samples producing > or =50% loss of cell proliferation using five serial 2-fold […]
(§7) IC50 values (concentration of sample causing 50% loss of cell proliferation of the vehicle control) were calculated using non-linear regression curve fitting of the dose response plots on GraphPad Prism V.6.0 software. […]

[4] = test system: MCF-10A; test: MTT cytotoxicity towards non-tumorigenic breast cells MCF-10A; format: cell-based, human; conditions: for IC50: Homo sapiens, MCF-10A, MTT assay, non-tumorigenic breast cell line; for Mean tumour selectivity index (S.I.): IC50 for MCF-10A/IC50 average for (MCF-7 and T-47D)
Text: In order to investigate their selectivity on cancer cells, hybrids 5d, 5e and 5f, endowed with dual growth inhibitory action against MCF-7 and T-47D cells, were assesses for their cytotoxic action towards the non-tumorigenic breast cells (MCF-10A), via the MTT assay. The obtained IC50s and the calculated mean tumour selectivity index (S.I.); IC50 for MCF-10A/IC50 average for (MCF-7 and T-47D) have been presented in Table 5.
as §4, §5
Cell proliferation was calculated comparing the OD values of the DMSO control wells and those of the samples represented as % proliferation to the control. Dose-response experiment was performed on samples producing > or =50% loss of cell proliferation using five serial 2-fold dilutions (50, 25, 12.5, 6.25 and 3.125 µM) of the sample. IC50 values (concentration of sample causing 50% loss of cell proliferation of the vehicle control) were calculated using non-linear regression curve fitting of the dose response plots on GraphPad Prism V.6.0 software. […]

[5] = test system: MCF-7; test: MTT anti-proliferative assay, MCF-7 breast cancer cells; format: cell-based; conditions: Homo sapiens, MCF7, 48 h exposure, mean ± SD of three separate experiments
Experimental: as §4, §5, §6, §7

[6] = test system: MCF-7 cells; test: Cell cycle analysis by flow cytometry (PI stain) in MCF-7 cells; format: cell-based, human; conditions: 24 h, at IC50 concentration; for %Sub-G1: control 1.29; for %G2/M: control 11.3; for %S: control 33.82; for %G0-G1: control 53.59
Experimental: Compounds showing promising antiproliferative as well as kinase inhibitory activity 5d, 5e and 5f were further investigated for their influence on the cell cycle progression by flow cytometry analysis using propidium iodide (PI) stain. Cell cycle parameters were compared for the breast cancer MCF-7 cells with DMSO as control and after treatment with the compounds of interest and incubation for 24 h, and the results were presented in Figure 5 and Table 3. […]
concentration), and then cells were washed twice with ice-cold phosphate buffered saline (PBS).
Subsequently, the treated cells were collected by centrifugation, fixed in ice-cold 70% (v/v) ethanol, washed with PBS, re-suspended with 100 μg/mL RNase, stained with 40 μg/mL PI, and analyzed by flow cytometry using FACS Calibur (Becton Dickinson, BD, Franklin Lakes, NJ,

[7] = target: T2, CDK2 (Homo sapiens, UniProt P24941); test: CDK2 kinase inhibition (CDK2 Kinase Enzyme System, Promega); format: biochemical; conditions: mean ± SD of three separate experiments
T2 construct: purchased Promega, Milan, Italy V2971
Experimental: as §1, §2, §3

T1 sequence (P49841 whole entry): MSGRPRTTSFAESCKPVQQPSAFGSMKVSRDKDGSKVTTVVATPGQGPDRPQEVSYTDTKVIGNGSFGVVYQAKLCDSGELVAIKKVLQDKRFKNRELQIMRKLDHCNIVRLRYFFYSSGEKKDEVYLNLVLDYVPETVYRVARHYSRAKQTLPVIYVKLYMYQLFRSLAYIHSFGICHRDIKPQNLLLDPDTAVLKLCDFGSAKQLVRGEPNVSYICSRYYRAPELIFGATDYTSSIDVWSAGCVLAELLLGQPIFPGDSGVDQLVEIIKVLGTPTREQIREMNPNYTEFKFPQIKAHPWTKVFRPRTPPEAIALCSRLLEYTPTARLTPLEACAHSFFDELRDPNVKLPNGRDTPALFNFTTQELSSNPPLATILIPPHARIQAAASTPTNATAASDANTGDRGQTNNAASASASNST

| SMILES | IC50 [1] | Late Apoptosis (Upper Right %) [2] | Early Apoptosis (Lower Right %) [2] | Total apoptosis (L.R % + U.R %) [2] | Necrosis [2] | melting point | IC50 [3] | IC50 [4] | Mean tumour selectivity index (S.I.) [4] | IC50 [5] | %Sub-G1 [6] | %G2/M [6] | %S [6] | %G0-G1 [6] | IC50 [7] |
| --- | --- | --- | --- | --- | --- | --- | --- | --- | --- | --- | --- | --- | --- | --- | --- |
| O=C1Nc2ccc(Br)cc2C1=NNC(=O)c1cc2cc(Br)ccc2o1 [5d, 5-Bromo-N'-(5-bromo-2-oxoindolin-3-ylidene)benzofuran-2-carbohydrazide] | 0.0321 ± 0.0017 µM | 10.14% | 3.61% | 13.75% | 1.56% | > 300 °C | 3.82 ± 0.12 µM | 21.7 ± 1.05 µM | 6.0 | 3.41 ± 0.1 µM | 13.27% | 30.26% | 22.5% | 33.97% | 0.0378 ± 0.0021 µM |
| Cc1ccc2c(c1)C(=NNC(=O)c1cc3cc(Br)ccc3o1)C(=O)N2 [5e, 5-Bromo-N'-(5-methyl-2-oxoindolin-3-ylidene)benzofuran-2-carbohydrazide] | 0.0808 ± 0.0044 µM | 15.08% | 4.66% | 19.74% | 1.81% | > 300 °C | 4.53 ± 0.14 µM | 23.6 ± 0.86 µM | 5.9 | 3.45 ± 0.1 µM | 17.73% | 29.21% | 23.21% | 29.85% | 0.177 ± 0.0096 µM |
| COc1ccc2c(c1)C(=NNC(=O)c1cc3cc(Br)ccc3o1)C(=O)N2 [5f, 5-Bromo-N'-(5-methoxy-2-oxoindolin-3-ylidene)benzofuran-2-carbohydrazide] | 0.0401 ± 0.0022 µM | 22.16% | 3.94% | 26.10% | 2.14% | > 300 °C | 7.8 ± 0.25 µM | 40 ± 1.42 µM | 7.9 | 2.27 ± 0.06 µM | 22.02% | 37.82% | 17.88% | 22.28% | 0.0528 ± 0.0029 µM |
